Experimental data taken from patent US8084457B2, “Pharmaceutically active 4,6-disubstituted aminopyrimidine derivatives as modulators of protein kinases” (Lead Discovery Center GmbH, priority 2003, dated 2011).

Experiments:
CDK9/Cyclin T1 = target: T1, CDK9/Cyclin T1 (Homo sapiens, UniProt P50750); assay: Kinase assay using CDK9/Cyclin T1; type: biochemical; conditions: read-out: CDK9 (activity range)
T1 construct: made in house; host or cells: HEK293 cells, recombinant adenovirus
Description: Cloning of CDK9 and Cyclin T1:
Both cDNA fragments were cloned by PCR into pDONR201 vectors using the gateway recombination system (Invitrogen) according to the manufacturer's recommendations. The fragments were subcloned into a gateway-adapted shuttle vector (pPM7) for production of recombinant adenovirus. All plasmids were verified by restriction digests and sequencing analysis.
Expression and Purification of CDK9/Cyclin T1 Proteins:
Expression and purification was in principle performed as described by Cotten et al. (M. Cotten et al., Nucleic acids research, 2003, 31(28), 128).
Kinase Assay Using CDK9/Cyclin T1:
Kinase assays were performed in principle as described by Cotten et al. (M. Cotten et al., Nucleic acids research, 2003, 31(28), 128).

CDK2/CyclinA = target: T2, CDK2/CyclinA (Homo sapiens, UniProt P24941); assay: Kinase assay determining CDK2/CyclinA activity; type: biochemical; conditions: read-out: CDK2 (activity range)
T2 construct: purchased Proqinase
Method: Kinase Assays Determining CDK2/CyclinA and CDK5/p35 Activity:
Kinase assays were performed as described by the manufacturers recommendations (Proqinase for CDK2/CyclinA and Upsate for CDK5/p35).

T1 sequence (P50750 whole entry): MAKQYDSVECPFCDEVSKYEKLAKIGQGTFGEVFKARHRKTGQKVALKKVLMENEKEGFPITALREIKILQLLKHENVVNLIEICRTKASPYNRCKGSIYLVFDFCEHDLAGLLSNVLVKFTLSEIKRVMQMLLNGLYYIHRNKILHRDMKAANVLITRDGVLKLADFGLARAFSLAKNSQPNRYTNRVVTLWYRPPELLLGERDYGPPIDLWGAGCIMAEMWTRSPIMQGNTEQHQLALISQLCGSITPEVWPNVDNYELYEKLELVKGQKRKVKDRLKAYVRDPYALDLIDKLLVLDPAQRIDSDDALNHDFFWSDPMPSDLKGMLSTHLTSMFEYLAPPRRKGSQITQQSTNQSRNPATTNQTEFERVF
T1 sequence (O60563 whole entry partner): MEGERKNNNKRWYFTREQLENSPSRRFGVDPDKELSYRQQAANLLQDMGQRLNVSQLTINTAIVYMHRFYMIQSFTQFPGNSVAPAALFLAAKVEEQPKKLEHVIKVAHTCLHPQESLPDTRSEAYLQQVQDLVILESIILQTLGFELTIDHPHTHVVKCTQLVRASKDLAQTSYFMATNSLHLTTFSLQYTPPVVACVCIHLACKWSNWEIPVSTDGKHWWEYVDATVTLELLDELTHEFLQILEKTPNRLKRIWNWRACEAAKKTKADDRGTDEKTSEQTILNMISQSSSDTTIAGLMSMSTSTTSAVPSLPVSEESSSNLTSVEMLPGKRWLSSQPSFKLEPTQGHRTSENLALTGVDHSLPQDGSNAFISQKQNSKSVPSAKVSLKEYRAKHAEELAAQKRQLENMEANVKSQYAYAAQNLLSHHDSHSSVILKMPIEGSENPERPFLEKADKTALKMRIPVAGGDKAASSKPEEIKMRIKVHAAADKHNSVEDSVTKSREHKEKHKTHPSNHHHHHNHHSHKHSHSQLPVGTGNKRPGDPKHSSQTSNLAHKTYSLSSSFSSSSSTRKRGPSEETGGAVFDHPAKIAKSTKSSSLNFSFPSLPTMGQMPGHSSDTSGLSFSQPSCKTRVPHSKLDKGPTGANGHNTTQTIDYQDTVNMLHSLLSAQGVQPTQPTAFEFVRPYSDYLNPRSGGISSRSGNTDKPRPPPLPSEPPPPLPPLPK

SMILES | IC50 (CDK9/Cyclin T1) [nM] | IC50 (CDK2/CyclinA) [nM]
COc1ccccc1-c1cc(Nc2ccc(C(=O)Nc3ccc(N4CCOCC4)cc3)cc2)ncn1 [(125)] | 1 to 1000 | 1000 to 10000
C=Cc1ccccc1-c1cc(Nc2ccc(NC(=O)C(C)(C)C)cc2)ncn1 [(126)] | 1000 to 10000 | 10000 to 250000
CC(C)(C)C(=O)Nc1ccc(Nc2cc(-c3ccccc3F)ncn2)cc1 [(127)] | 10000 to 250000 | 10000 to 250000
COc1ccccc1-c1cc(Nc2ccc(NC(=O)c3ccc4c(c3)OCO4)cc2)ncn1 [(130)] | 1 to 1000 | 1000 to 10000
CCc1ccccc1-c1cc(Nc2ccc(NC(=O)C(C)(C)C)cc2)ncn1 [(131)] | 10000 to 250000 | 1000 to 10000
COc1ccccc1-c1cc(Nc2ccc(NC(=O)c3c[nH]c4ccccc34)cc2)ncn1 [(133)] | 1 to 1000 | 1000 to 10000
COc1ccccc1-c1cc(Nc2ccc(C(=O)Nc3ccc(O)cc3)cc2)ncn1 [(136)] | 1 to 1000 | 1000 to 10000
COc1ccccc1-c1cc(Nc2ccc(C(=O)Nc3ccc(C(C)C)cc3)cc2)ncn1 [(137)] | 1000 to 10000 | 10000 to 250000
COc1ccccc1-c1cc(Nc2ccc(NC(=O)c3ccc4[nH]cnc4c3)cc2)ncn1 [(138)] | 1000 to 10000 | 10000 to 250000
COc1ccccc1-c1cc(Nc2ccc(NC(=O)c3ccc4ccccc4c3O)cc2)ncn1 [(139)] | 1 to 1000 | 1000 to 10000
Cc1ccc(Nc2cc(-c3cccc(N)c3)ncn2)cc1NS(=O)(=O)c1cccc2cccnc12 [(142)] | 1 to 1000 | 10000 to 250000
Cc1ccc(Nc2cc(-c3cccc(N)c3)ncn2)cc1NS(=O)(=O)c1cn(C)cn1 [(144)] | 1 to 1000 | 1 to 1000
COc1ccccc1-c1cc(Nc2ccc(NC(=O)C(N)c3ccc4ccccc4c3)cc2)ncn1 (stereo not drawn) [(146)] | 1 to 1000 | 1000 to 10000
COc1ccccc1-c1cc(Nc2ccc(C(=O)NC3CCCCC3N)cc2)ncn1 (stereo not drawn) [(148)] | 1 to 1000 | 1000 to 10000
Nc1ccc(C(=O)Nc2ccc(Nc3cc(-c4ccccc4O)ncn3)cc2)cc1 [(151)] | 10000 to 250000 | 10000 to 250000

The remaining lines, values ahead:

IC50 (CDK9/Cyclin T1) [nM] | IC50 (CDK2/CyclinA) [nM] | SMILES
10000 to 250000 | 10000 to 250000 | COc1ccccc1-c1ncnc(Nc2ccc(N)cc2)c1C [(152)]
1 to 1000 | 1 to 1000 | COc1ccccc1-c1cc(Nc2ccc(NS(=O)(=O)C(C)C)cc2)ncn1 [(153)]
1 to 1000 | 1 to 1000 | CCCS(=O)(=O)Nc1ccc(Nc2cc(-c3ccccc3OC)ncn2)cc1 [(154)]
1 to 1000 | 1 to 1000 | COc1ccccc1-c1cc(Nc2ccc(NS(=O)(=O)c3ccccc3)cc2)ncn1 [(155)]
1 to 1000 | 1 to 1000 | Cc1ccc(Nc2cc(-c3ccccc3OCc3ccccc3)ncn2)cc1NS(C)(=O)=O [(156)]
1 to 1000 | 1000 to 10000 | Cc1ccc(Nc2cc(-c3cccc(N(C)C)c3)ncn2)cc1NS(C)(=O)=O [(157)]
1 to 1000 | 1 to 1000 | Cc1ccc(Nc2cc(-c3ccccc3OC(C)C)ncn2)cc1NS(C)(=O)=O [(158)]
1 to 1000 | 1 to 1000 | COc1ccccc1-c1cc(Nc2ccc(C)c(NS(C)(=O)=O)c2)ncn1 [(162)]
1000 to 10000 | 1000 to 10000 | Cc1ccc(Nc2cc(-c3cccc(C#N)c3)ncn2)cc1NS(C)(=O)=O [(163)]
1 to 1000 | 1 to 1000 | O=C(Nc1ccc(Nc2cc(-c3ccccc3OCc3ccccc3)ncn2)cc1)[C@@H]1CCCCN1 [(164)]
1000 to 10000 | 1000 to 10000 | Cc1ccc(Nc2cc(-c3cccc(C=O)c3)ncn2)cc1NS(C)(=O)=O [(165)]
1 to 1000 | 1000 to 10000 | O=C(Nc1ccc(Nc2cc(-c3ccc(Oc4ccccc4)cc3)ncn2)cc1)[C@@H]1CCCCN1 [(174)]
1 to 1000 | 1000 to 10000 | COc1ncccc1-c1cc(Nc2ccc(C)c(NS(C)(=O)=O)c2)ncn1 [(176)]
1 to 1000 | 1 to 1000 | Cc1ccc(Nc2cc(-c3ccccc3O)ncn2)cc1NS(C)(=O)=O [(181)]
1000 to 10000 | 1000 to 10000 | COC(=O)/C=C/c1cccc(-c2cc(Nc3ccc(C)c(NS(C)(=O)=O)c3)ncn2)c1 [(182)]
